Test results reported in patent publication US5760188A, “Marker for neurotensin receptor” (Martin R&F Inc., priority 1996, dated 1998).

Legend:
Stability / shelf life = format: physicochemical; conditions: protected from light and maintained at 4° C.
Solubility = format: physicochemical; conditions: distilled water or aqueous buffer

CC[C@H](C)[C@H](NC(=O)[C@H](Cc1ccc(O)cc1)NC(=O)[C@@H]1CCCN1C(=O)[C@H](CCCNC(=N)N)NC(=O)[C@H](CCCNC(=N)N)NC(=O)[C@@H]1CCCN1C(=O)[C@H](CCCCN)NC(=O)[C@H](CC(N)=O)NC(=O)[C@H](CCC(=O)O)NC(=O)[C@H](Cc1ccc(O)cc1)NC(=O)[C@H](CC(C)C)NC(=O)[C@H](CCC(=O)O)NC(=S)Nc1ccc2c(c1)C(=O)OC21c2ccc(O)cc2Oc2cc(O)ccc21)C(=O)N[C@@H](CC(C)C)C(=O)O [N-FTC-[Glu^1]NT, N-fluoresceyl thiocarbamyl-[Glu^1] neurotensin]
stability (Stability / shelf life): stable | toxicity (Toxicity (statement)): 100% non-toxic | solubility (Solubility): freely soluble
